pEC50, pIC50: −log10 of the molar value.
Tests used:
H9 [1] = assay: Compound was evaluated for cytotoxicity in H9 lymphocytes; format: functional, cell-based; conditions: Homo sapiens
H9 [2] = assay: Compound was evaluated for anti-HIV activity in H9 lymphocytes; format: functional, cell-based; conditions: Homo sapiens

`C=C(C)[C@@H]1CC[C@]2(COC(=O)CC(C)(C)CC(=O)O)CC[C@]3(C)[C@H](CC[C@@H]4[C@@]5(C)CCC(=O)C(C)(C)[C@@H]5CC[C@]43C)[C@@H]12` was tested, and the pIC50 (H9 [1]) was 4.53 and the pEC50 (H9 [2]) was 5.00.

For `CC(C)[C@@H]1CC[C@]2(COC(=O)CC(C)(C)CC(=O)O)CC[C@]3(C)[C@H](CC[C@@H]4[C@@]5(C)CC[C@H](OC(=O)CC(C)(C)CC(=O)O)C(C)(C)[C@@H]5CC[C@]43C)[C@@H]12`, the pIC50 (H9 [1]) was 4.97 and the pEC50 (H9 [2]) was 8.33.

Compound `C=C(C)[C@@H]1CC[C@]2(COC(=O)CC3(CC(=O)O)CCCC3)CC[C@]3(C)[C@H](CC[C@@H]4[C@@]5(C)CC[C@H](OC(=O)CC6(CC(=O)O)CCCC6)C(C)(C)[C@@H]5CC[C@]43C)[C@@H]12` has a pIC50 (H9 [1]) of 4.69 and a pEC50 (H9 [2]) of 7.11.

Compound `CCC(C)(CC(=O)O)CC(=O)OC[C@]12CC[C@@H](C(C)C)[C@@H]1[C@H]1CC[C@@H]3[C@@]4(C)CC[C@H](OC(=O)CC(C)(CC)CC(=O)O)C(C)(C)[C@@H]4CC[C@@]3(C)[C@]1(C)CC2` (some centres undefined) has a pIC50 (H9 [1]) of 4.73 and a pEC50 (H9 [2]) of 7.12.

`C=C(C)[C@@H]1CC[C@]2(COC(=O)CC(C)(C)CC(=O)O)CC[C@]3(C)[C@H](CC[C@@H]4[C@@]5(C)CC=CC(C)(C)[C@@H]5CC[C@]43C)[C@@H]12` was tested, and the pIC50 (H9 [1]) was 4.55 and the pEC50 (H9 [2]) was 5.27.

`C=C(C)[C@@H]1CC[C@]2(COC(=O)CC(C)(C)CC(=O)O)CC[C@]3(C)[C@H](CC[C@@H]4[C@@]5(C)CC[C@H](O)C(C)(C)[C@@H]5CC[C@]43C)[C@@H]12` showed a pIC50 (H9 [1]) of 4.55 and a pEC50 (H9 [2]) of 5.44.

`C=C(C)[C@@H]1CC[C@]2(C(=O)O)CC[C@]3(C)[C@H](CC[C@@H]4[C@@]5(C)CC[C@H](OC(=O)CC(C)(C)CC(=O)O)C(C)(C)[C@@H]5CC[C@]43C)[C@@H]12` showed a pEC50 (H9 [2]) of 8.64.

For `C=C(C)[C@@H]1CC[C@]2(COC(=O)CC(C)(CC)CC(=O)O)CC[C@]3(C)[C@H](CC[C@@H]4[C@@]5(C)CC[C@H](OC(=O)CC(C)(CC)CC(=O)O)C(C)(C)[C@@H]5CC[C@]43C)[C@@H]12` (some centres undefined), the pIC50 (H9 [1]) was 4.74 and the pEC50 (H9 [2]) was 8.28.

With `C=C(C)[C@@H]1CC[C@]2(CO)CC[C@]3(C)[C@H](CC[C@@H]4[C@@]5(C)CC=CC(C)(C)[C@@H]5CC[C@]43C)[C@@H]12` the pIC50 (H9 [1]) was 4.50 and the pEC50 (H9 [2]) was 4.92.

In the case of `C=C(C)[C@@H]1CC[C@]2(COC(=O)CC(C)(C)CC(=O)O)CC[C@]3(C)[C@H](CC[C@@H]4[C@@]5(C)CC[C@H](OC(=O)CC(C)(C)CC(=O)O)C(C)(C)[C@@H]5CC[C@]43C)[C@@H]12`, the pIC50 (H9 [1]) was 4.85 and the pEC50 (H9 [2]) was 9.18.

In the case of `CC(C)[C@@H]1CC[C@]2(COC(=O)CC3(CC(=O)O)CCCC3)CC[C@]3(C)[C@H](CC[C@@H]4[C@@]5(C)CC[C@H](OC(=O)CC6(CC(=O)O)CCCC6)C(C)(C)[C@@H]5CC[C@]43C)[C@@H]12`, the pIC50 (H9 [1]) was 4.67 and the pEC50 (H9 [2]) was 6.24.

Compound `C=C(C)[C@@H]1CC[C@]2(CO)CC[C@]3(C)[C@H](CC[C@@H]4[C@@]5(C)CC[C@H](O)C(C)(C)[C@@H]5CC[C@]43C)[C@@H]12` [BETULIN] has a pIC50 (H9 [1]) of 4.36 and a pEC50 (H9 [2]) of 4.64.

In the case of `Cc1cn([C@H]2C[C@H](N=[N+]=[N-])[C@@H](CO)O2)c(=O)[nH]c1=O` [ZIDOVUDINE], the pEC50 (H9 [2]) was 7.82.
